From patent US20240270751A1, “Pyrazolopyridinone Compounds” (BeiGene Ltd., priority 2021, published 2024)
pIC50: −log10 of the molar value. Where two headings read alike, the source gives them in different places.

Legend:
[1] = target: DGKα (Homo sapiens (Human), UniProt P23743); assay: Biochemical DGK IC50 assay, DGKα ADP-Glo assay; details: 7.5 nM enzyme, 140 μM ATP, 80 μM DAG
Outline: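 ADP-Glo read-out with full-length DGKα on DAG/PS lipid micelle substrate in 25 mM HEPES pH 7.0, 0.5 mM EDTA, 160 mM octyl β-D-glucopyranoside. Compound final concentrations spanned 1.55˜10000 nM or 23.3˜150000 nM.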

[2] = target: DGKζ (Homo sapiens (Human), UniProt Q13574); assay: Biochemical DGK IC50 assay, DGKζ ADP-Glo assay; details: 0.5 nM enzyme, 140 μM ATP, 80 μM DAG; for pIC50: read-out: DGKζ ADP-Glo assay IC50
Outline: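 Full-length human DGKζ, His-TEV tagged and purified from baculovirus-infected Sf9 cells, assayed by ADP-Glo with DAG/PS lipid micelle substrate prepared in 25 mM HEPES pH 7.0 with octyl glucoside. Final compound concentrations spanned 1.55–10000 nM or 23.3–150000 nM.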

Sequence of DGKζ (Q13574 other isoform, or with tags, fused parts or gaps): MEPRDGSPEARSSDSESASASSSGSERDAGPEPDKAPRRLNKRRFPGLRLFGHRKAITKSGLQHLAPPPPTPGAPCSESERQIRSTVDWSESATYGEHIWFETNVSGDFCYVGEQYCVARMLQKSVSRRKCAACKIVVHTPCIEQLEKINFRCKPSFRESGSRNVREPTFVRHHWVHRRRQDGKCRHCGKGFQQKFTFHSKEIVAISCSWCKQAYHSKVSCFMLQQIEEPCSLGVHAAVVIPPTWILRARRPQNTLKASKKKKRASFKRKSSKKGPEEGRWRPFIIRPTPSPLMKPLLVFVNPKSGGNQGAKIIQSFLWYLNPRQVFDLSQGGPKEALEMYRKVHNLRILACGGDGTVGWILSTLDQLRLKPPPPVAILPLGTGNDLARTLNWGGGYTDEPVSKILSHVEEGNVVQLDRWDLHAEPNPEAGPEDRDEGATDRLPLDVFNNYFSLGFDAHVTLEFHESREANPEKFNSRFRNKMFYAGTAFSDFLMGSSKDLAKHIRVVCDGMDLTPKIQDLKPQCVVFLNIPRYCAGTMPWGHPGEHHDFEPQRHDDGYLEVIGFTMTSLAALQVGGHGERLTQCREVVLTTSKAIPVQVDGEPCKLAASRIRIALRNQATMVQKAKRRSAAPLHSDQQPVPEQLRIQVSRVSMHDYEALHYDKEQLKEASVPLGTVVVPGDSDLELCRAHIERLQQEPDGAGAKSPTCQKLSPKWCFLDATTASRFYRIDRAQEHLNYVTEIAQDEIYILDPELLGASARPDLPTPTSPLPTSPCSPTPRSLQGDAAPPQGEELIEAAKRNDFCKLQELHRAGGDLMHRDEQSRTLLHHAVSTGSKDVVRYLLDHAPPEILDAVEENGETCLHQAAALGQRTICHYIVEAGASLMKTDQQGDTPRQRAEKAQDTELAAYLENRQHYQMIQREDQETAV
Sequence of DGKα (P23743 whole entry): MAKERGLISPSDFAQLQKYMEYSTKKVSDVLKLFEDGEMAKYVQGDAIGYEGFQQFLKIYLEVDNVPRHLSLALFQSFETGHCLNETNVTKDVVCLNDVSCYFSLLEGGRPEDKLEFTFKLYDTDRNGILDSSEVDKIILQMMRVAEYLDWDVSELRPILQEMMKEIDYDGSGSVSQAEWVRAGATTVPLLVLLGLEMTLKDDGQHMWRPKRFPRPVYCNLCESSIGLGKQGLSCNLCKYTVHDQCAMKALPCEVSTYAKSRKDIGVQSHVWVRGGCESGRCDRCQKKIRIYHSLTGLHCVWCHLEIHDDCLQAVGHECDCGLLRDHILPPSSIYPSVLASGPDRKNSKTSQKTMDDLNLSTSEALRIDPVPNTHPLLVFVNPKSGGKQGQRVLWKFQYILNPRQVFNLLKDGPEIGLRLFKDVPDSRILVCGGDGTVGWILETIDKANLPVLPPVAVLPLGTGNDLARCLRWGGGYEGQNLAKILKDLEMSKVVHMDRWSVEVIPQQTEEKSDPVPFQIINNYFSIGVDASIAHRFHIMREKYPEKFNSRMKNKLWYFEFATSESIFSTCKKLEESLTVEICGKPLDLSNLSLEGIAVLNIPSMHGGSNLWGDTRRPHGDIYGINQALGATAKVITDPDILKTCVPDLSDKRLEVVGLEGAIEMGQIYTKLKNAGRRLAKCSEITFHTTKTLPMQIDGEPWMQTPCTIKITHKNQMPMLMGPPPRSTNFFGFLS

pIC50 [1] | pIC50 [2] | Compound | IC50 ([2]; DGKζ ADP-Glo assay IC50(nM)) [nM]
5.13 | 6.80 | CC[C@H]1CN(C(C)c2cnn(C)c2C(F)F)[C@H](CC)CN1c1cc(=O)n(C)c2cn(CC#N)nc12 (some centres unmarked) [Compound A234] | 
< 5.00 | 5.87 | CC[C@H]1CN(C(C)c2cncn2CC(F)F)[C@H](CC)CN1c1cc(=O)n(C)c2cn(CC#N)nc12 (some centres unmarked) [Compound A237] | 
< 5.00 | 6.41 | CC[C@H]1CN(C(C)c2cnc(C(F)(F)F)n2CC)[C@H](CC)CN1c1cc(=O)n(C)c2cn(CC#N)nc12 (some centres unmarked) [Compound A239] | 
5.19 | 6.57 | CC[C@@H]1CN(c2cc(=O)n(C)c3cn(CC#N)nc23)[C@@H](CC)CN1Cc1ccc(F)cc1C(F)(F)F [Compound A241] | 
< 5.00 | < 5.00 | CC(C1CCOCC1)N1C[C@H](C)N(c2cc(=O)n(C)c3cn(CC#N)nc23)C[C@H]1C (some centres unmarked) [Compound A242] | 
< 5.00 | 6.55 | CC(c1ccc(F)cc1OC(F)F)N1C[C@H](C)N(c2cc(=O)n(C)c3cn(CC#N)nc23)C[C@H]1C (stereo partly drawn) [Compound A247, 2-(7-((2S,5R)-4-(1-(2-(difluoromethoxy)-4-fluorophenyl)ethyl)-2,5-dimethylpiperazin-1-yl)-4-methyl-5-oxo-4,5-dihydro-2H-pyrazolo[4,3-b]pyridin-2-yl)acetonitrile] | 
< 5.00 | 5.52 | CC(c1cnc2c(c1)OCCO2)N1C[C@H](C)N(c2cc(=O)n(C)c3cn(CC#N)nc23)C[C@H]1C (some centres unmarked) [Compound A250] | 
< 5.00 | 5.86 | CC(c1ccc(F)cc1C(F)F)N1C[C@H](C)N(c2cc(=O)n(C)c3cn(CC#N)nc23)C[C@H]1C (some centres unmarked) [Compound A252] | 
< 5.00 | 6.71 | CCC(c1ccc2nccnc2c1)N1C[C@H](C)N(c2cc(=O)n(C)c3cn(CC#N)nc23)C[C@H]1C (some centres unmarked) [Compound A255] | 
< 5.00 | 6.50 | CCC(c1ccc(F)cc1C(F)(F)F)N1C[C@H](C)N(c2cc(=O)n(C)c3cn(CC#N)nc23)C[C@H]1C (some centres unmarked) [Compound A256] | 
< 5.00 | 6.19 | [2H]C([2H])([2H])n1c(=O)cc(N2C[C@@H](C)N(C(C)c3ccc(F)cc3C(F)(F)F)C[C@@H]2C)c2nn(CC#N)cc21 (stereo partly drawn) [Compound A257, 2-(7-((2S,5R)-4-(1-(4-fluoro-2-(trifluoromethyl)phenyl)ethyl)-2,5-dimethylpiperazin-1-yl)-4-(methyl-d3)-5-oxo-4,5-dihydro-2H-pyrazolo[4,3-b]pyridin-2-yl)acetonitrile] | 
< 5.00 | 6.82 | C[C@@H]1CN(c2cc(=O)n(C)c3cn(CC#N)nc23)[C@@H](C)CN1C(c1ccc2nccnc2c1)C(F)F (stereo partly drawn) [Compound A262, 2-(7-((2S,5R)-4-(2,2-difluoro-1-(quinoxalin-6-yl)ethyl)-2,5-dimethylpiperazin-1-yl)-4-methyl-5-oxo-4,5-dihydro-2H-pyrazolo[4,3-b]pyridin-2-yl)acetonitrile] | 
< 5.00 | 6.67 | CC[C@@H]1CN(c2cc(=O)[nH]c3c(C)n(CC#N)nc23)[C@@H](C)CN1C(C)c1ccc2nccnc2c1 (some centres unmarked) [Compound A264] | 
< 5.00 | 6.13 | CC[C@H]1CN(C(C)c2ccc(F)cc2C(F)(F)F)[C@H](CC)CN1c1cc(=O)[nH]c2cn(CC#N)nc12 (stereo partly drawn) [Compound A265, 2-(7-((2S,5R)-2,5-diethyl-4-(1-(4-fluoro-2-(trifluoromethyl)phenyl)ethyl)piperazin-1-yl)-5-oxo-4,5-dihydro-2H-pyrazolo[4,3-b]pyridin-2-yl)acetonitrile] | 
< 5.00 | 7.46 | Cc1cnc2ccc(C(C)N3C[C@H](C)N(c4cc(=O)n(C)c5cn(CC#N)nc45)C[C@H]3C)cc2n1 (stereo partly drawn) [Compound A269 (RII), 2-(7-((2S,5R)-2,5-dimethyl-4-(1-(3-methylquinoxalin-6-yl)ethyl)piperazin-1-yl)-4-methyl-5-oxo-4,5-dihydro-2H-pyrazolo[4,3-b]pyridin-2-yl)acetonitrile] | 
4.40 | 6.77 | COc1cnc2ccc(C(C)N3C[C@H](C)N(c4cc(=O)n(C)c5cn(CC#N)nc45)C[C@H]3C)cc2n1 (stereo partly drawn) [Compound A270, 2-(7-((2S,5R)-4-(1-(3-methoxyquinoxalin-6-yl)ethyl)-2,5-dimethylpiperazin-1-yl)-4-methyl-5-oxo-4,5-dihydro-2H-pyrazolo[4,3-b]pyridin-2-yl)acetonitrile] | 

More lines, now with the values behind:

Compound | pIC50 [1] | pIC50 [2] | IC50 ([2]; DGKζ ADP-Glo assay IC50(nM)) [nM]
CC[C@H]1CN(C(C)c2cnc(C)cc2C(F)(F)F)[C@H](CC)CN1c1cc(=O)n(C)c2cn(CC#N)nc12 (some centres unmarked) [Compound A235] | < 5.00 | 5.27 | 
CC[C@H]1CN(C(C)c2nn(CC)cc2C#N)[C@H](CC)CN1c1cc(=O)n(C)c2cn(CC#N)nc12 (stereo partly drawn) [Compound A240, 3-(1-((2R,5S)-4-(2-(cyanomethyl)-4-methyl-5-oxo-4,5-dihydro-2H-pyrazolo[4,3-b]pyridin-7-yl)-2,5-diethylpiperazin-1-yl)ethyl)-1-ethyl-1H-pyrazole-4-carbonitrile] | 6.02 | 5.70 | 
C[C@@H]1CN(c2nc(=O)n(C)c3c(Cl)n(CC#N)nc23)[C@@H](C)CN1[C@H](C)c1ccc2nccnc2c1 [Compound A245, 2-(3-chloro-7-((2S,5R)-2,5-dimethyl-4-((R)-1-(quinoxalin-6-yl)ethyl)piperazin-1-yl)-4-methyl-5-oxo-4,5-dihydro-2H-pyrazolo[4,3-d]pyrimidin-2-yl)acetonitrile, or 2-(3-chloro-7-((2S,5R)-2,5-dimethyl-4-((S)-1-(quinoxalin-6-yl)ethyl)piperazin-1-yl)-4-methyl-5-oxo-4,5-dihydro-2H-pyrazolo[4,3-d]pyrimidin-2-yl)acetonitrile] | < 5.00 | 7.06 | 
C[C@@H]1CN(c2cc(=O)n(C)c3cn(CC#N)nc23)[C@@H](C)CN1Cc1ccc(F)cc1C(F)(F)F [Compound A246] | 5.01 | 5.97 | 
CC(c1ccc(Cl)cc1C(F)(F)F)N1C[C@H](C)N(c2cc(=O)n(C)c3cn(CC#N)nc23)C[C@H]1C (some centres unmarked) [Compound A251] | < 5.00 | 5.49 | 
CC(c1ccc(F)cc1C(C)(F)F)N1C[C@H](C)N(c2cc(=O)n(C)c3cn(CC#N)nc23)C[C@H]1C (stereo partly drawn) [Compound A254, 2-(7-((2S,5R)-4-(1-(2-(1,1-difluoroethyl)-4-fluorophenyl)ethyl)-2,5-dimethylpiperazin-1-yl)-4-methyl-5-oxo-4,5-dihydro-2H-pyrazolo[4,3-b]pyridin-2-yl)acetonitrile] | < 5.00 | 6.51 | 
C[C@@H]1CN(c2cc(=O)n(C)c3c(F)nn(CC#N)c23)[C@@H](C)CN1[C@H](C)c1ccc2nccnc2c1 [Compound A258, 2-(7-((2S,5R)-2,5-dimethyl-4-((R)-1-(quinoxalin-6-yl)ethyl)piperazin-1-yl)-3-fluoro-4-methyl-5-oxo-4,5-dihydro-1H-pyrazolo[4,3-b]pyridin-1-yl)acetonitrile, or 2-(7-((2S,5R)-2,5-dimethyl-4-((S)-1-(quinoxalin-6-yl)ethyl)piperazin-1-yl)-3-fluoro-4-methyl-5-oxo-4,5-dihydro-1H-pyrazolo[4,3-b]pyridin-1-yl)acetonitrile] | < 5.00 | < 5.00 | 
CC[C@@H]1CN(c2cc(=O)n(C)c3cn(CC#N)nc23)[C@@H]([C@@H](C)O)CN1C(C)c1ccc2nccnc2c1 (stereo partly drawn) [Compound A259, 2-(7-((2R,5R)-5-ethyl-2-((R)-1-hydroxyethyl)-4-(1-(quinoxalin-6-yl)ethyl)piperazin-1-yl)-4-methyl-5-oxo-4,5-dihydro-2H-pyrazolo[4,3-b]pyridin-2-yl)acetonitrile] | < 5.00 | 6.42 | 
CC(c1ccc2nccnc2c1)N1C[C@H](C(F)F)N(c2cc(=O)n(C)c3cn(CC#N)nc23)C[C@H]1C (stereo partly drawn) [Compound A261, 2-(7-((2R,5R)-2-(difluoromethyl)-5-methyl-4-(1-(quinoxalin-6-yl)ethyl)piperazin-1-yl)-4-methyl-5-oxo-4,5-dihydro-2H-pyrazolo[4,3-b]pyridin-2-yl)acetonitrile] | < 5.00 | 5.63 | 
C[C@@H]1CN(c2cc(=O)n(C)c3c(Cl)n(CC#N)nc23)[C@@H](C)CN1[C@H](C)c1ccc2nccnc2c1 [Compound A263, 2-(3-chloro-7-((2S,5R)-2,5-dimethyl-4-((R)-1-(quinoxalin-6-yl)ethyl)piperazin-1-yl)-4-methyl-5-oxo-4,5-dihydro-2H-pyrazolo[4,3-b]pyridin-2-yl)acetonitrile, or 2-(3-chloro-7-((2S,5R)-2,5-dimethyl-4-((S)-1-(quinoxalin-6-yl)ethyl)piperazin-1-yl)-4-methyl-5-oxo-4,5-dihydro-2H-pyrazolo[4,3-b]pyridin-2-yl)acetonitrile] | 4.38 | 7.07 | 
[2H]c1nc2ccc(C(C)N3C[C@H](C)N(c4cc(=O)n(C)c5cn(CC#N)nc45)C[C@H]3C)cc2nc1[2H] (stereo partly drawn) [Compound A268, 2-(7-((2S,5R)-2,5-dimethyl-4-(1-(quinoxalin-6-yl-2,3-d2)ethyl)piperazin-1-yl)-4-methyl-5-oxo-4,5-dihydro-2H-pyrazolo[4,3-b]pyridin-2-yl)acetonitrile] | 4.79 |  | 133
Cc1cnc2ccc([C@@H](C)N3C[C@H](C)N(c4cc(=O)n(C)c5cn(CC#N)nc45)C[C@H]3C)cc2n1 [Compound A269c, 2-(7-((2S,5R)-2,5-dimethyl-4-((R)-1-(3-methylquinoxalin-6-yl)ethyl)piperazin-1-yl)-4-methyl-5-oxo-4,5-dihydro-2H-pyrazolo[4,3-b]pyridin-2-yl)acetonitrile] | < 5.00 | < 5.00 | 
